Earlier results, collected in patent US6485659B1, “Electrical apparatus with dielectric fluid blend of polyalphaolefins and polyol esters or triglycerides” (priority 1995, dated 2002).
Where two headings read alike, the source gives them in different places.

Experiments:
[1] = within 7 days; Nippon
rats [2] = details: rat, in vivo
rats [3] = details: for chronic toxicity findings: rat, in vivo, po

Q: With phenyl-ortho-tolyl-ethane [POXE] as the substance, how does the biodegradation [1] read?
A: 100% biodegradation within 7 days (Nippon)

Q: And the LD50 in rats (rats [2])?
A: 2.3 ml/kg (Dielectrol III, Saperstein and Faeder article)

Q: And the chronic toxicity findings (rats [3])?
A: showed lower weight gain, and liver/kidney enlargement (Dielectrol - Saperstein and Faeder.)

Q: What about the chronic toxicity findings (rats [3]; 146 mg/kg/day) of the same substance?
A: <146 mg/kg/day showed little to no effects. (Nippon Oil/Saperstein and Faeder)

Q: And the mortality (rats [3]; rats, oral, 0.58 ml/kg/day for 1 month, Dielectrol, Saperstein and Faeder)?
A: In rats, 0.58 ml/kg/day for 1 month yielded 50% mortality. 0.146 ml/kg/day for 3-6 months
